These results are taken from ChEMBL document CHEMBL1132507, “Dibasic benzo[B]thiophene derivatives as a novel class of active site directed thrombin inhibitors: 4. SAR studies on the conformationally restricted C3-side chain of hydroxybenzo[B]thiophenes” (Bioorg Med Chem Lett, 1999).

In the experiment the target is Prothrombin (Homo sapiens) (UniProt P00734). Nature of the experiment: Apparent association constant towards thrombin.
Turning to `Oc1ccc2c(Cc3ccc(O[C@@H]4CCCC[C@H]4N4CCCC4)c(C(F)(F)F)c3)c(-c3ccc(OCCN4CCCC4)cc3)sc2c1`, the K ass is 6.84e+07 l M-1.

Consider `Oc1ccc2c(Cc3ccc(O[C@@H]4CCCC[C@H]4N4CCCCC4)nc3)c(-c3ccc(OCCN4CCCC4)cc3)sc2c1`, for which the K ass was 9.61e+07 l M-1.

For `O=C(c1ccc(O[C@@H]2CCCC[C@H]2N2CCCCCC2)cc1)c1c(-c2ccc(OCCN3CCCC3)cc2)sc2ccccc12`, the K ass was 490000 l M-1.

As to `Oc1ccc2c(Cc3ccc(O[C@@H]4CCCC[C@H]4N4CCCCC4)c(F)c3)c(-c3ccc(OCCN4CCCC4)cc3)sc2c1`, the K ass is 2.03e+08 l M-1.

As to `Oc1ccc2c(Cc3ccc(O[C@@H]4CCCC[C@H]4n4ccnc4)cc3)c(-c3ccc(OCCN4CCCC4)cc3)sc2c1`, the K ass was 8.08e+06 l M-1.

Turning to `COc1ccc2c(Cc3ccc(O[C@@H]4CCCC[C@H]4N4CCCCC4)cc3)c(-c3ccc(OCCN4CCCC4)cc3)sc2c1`, the K ass is 3.83e+06 l M-1.

Turning to `COc1cc(Cc2c(-c3ccc(OCCN4CCCC4)cc3)sc3cc(O)ccc23)ccc1O[C@@H]1CCCC[C@H]1N(C)C`, the K ass was 1.46e+08 l M-1.

Consider `Oc1ccc2c(Cc3ccc(O[C@@H]4CCCC[C@H]4N4CCCC4)cc3)c(-c3ccc(OCCN4CCCC4)cc3)sc2c1`, for which the K ass was 2.18e+08 l M-1.

For `Oc1ccc2c(Cc3ccc(O[C@@H]4CCCC[C@H]4N4CCCC4)c(Br)c3)c(-c3ccc(OCCN4CCCC4)cc3)sc2c1`, the K ass was 2.8e+08 l M-1.

`COc1ccc2sc(-c3ccc(OCCN4CCCC4)cc3)c(Cc3ccc(O[C@@H]4CCCC[C@H]4N4CCCCC4)cc3)c2c1`: the K ass was 3.65e+07 l M-1.

For the compound `Oc1ccc2sc(-c3ccc(OCCN4CCCC4)cc3)c(Cc3ccc(OC4CCCC[C@H]4N4CCCCC4)cc3)c2c1` (stereo partly drawn), the K ass was 1.39e+07 l M-1.

Take `CCN(CC)[C@@H]1CCCC[C@H]1Oc1ccc(Cc2c(-c3ccc(OCCN4CCCC4)cc3)sc3cc(O)ccc23)cc1`: the K ass is 4.98e+07 l M-1.

For the compound `Oc1ccc2c(Cc3ccc(O[C@@H]4CCCC[C@H]4N4CCOCC4)cc3)c(-c3ccc(OCCN4CCCC4)cc3)sc2c1`, the K ass is 1.81e+07 l M-1.

In the case of `COc1cc(Cc2c(-c3ccc(OCCN4CCCC4)cc3)sc3cc(O)ccc23)ccc1O[C@@H]1CCCC[C@H]1N1CCCCC1`, the K ass was 1.16e+08 l M-1.

On to `Oc1cccc2sc(-c3ccc(OCCN4CCCC4)cc3)c(Cc3ccc(O[C@@H]4CCCC[C@H]4N4CCCCC4)cc3)c12`, for which the K ass is 1.73e+06 l M-1.

For `Oc1ccc2c(Cc3ccc(O[C@@H]4CCCC[C@H]4N4CCCC4)c(F)c3)c(-c3ccc(OCCN4CCCC4)cc3)sc2c1`, the K ass was 1.21e+08 l M-1.

Consider `Oc1ccc2c(Cc3ccc(O[C@@H]4CCC[C@H]4N4CCCCC4)cc3)c(-c3ccc(OCCN4CCCC4)cc3)sc2c1`, for which the K ass was 4.73e+07 l M-1.

For the compound `Oc1ccc2c(Cc3ccc(O[C@@H]4CCCC[C@H]4N4CCCC4)c(O)c3)c(-c3ccc(OCCN4CCCC4)cc3)sc2c1`, the K ass was 1.12e+07 l M-1.

Consider `Cc1cc(Cc2c(-c3ccc(OCCN4CCCC4)cc3)sc3cc(O)ccc23)ccc1O[C@@H]1CCCC[C@H]1N1CCCC1`, for which the K ass is 3.49e+08 l M-1.

As to `O=C(c1ccc(O[C@@H]2CCCC[C@H]2N2CCCCC2)cc1)c1c(-c2ccc(OCCN3CCCC3)cc2)sc2ccccc12`, the K ass was 1.17e+06 l M-1.

`Oc1cccc2c(Cc3ccc(O[C@@H]4CCCC[C@H]4N4CCCCC4)cc3)c(-c3ccc(OCCN4CCCC4)cc3)sc12`: the K ass was 1.08e+06 l M-1.

Take `Oc1ccc2c(Cc3ccc(O[C@@H]4CCCC[C@H]4N4CCCCCC4)cc3)c(-c3ccc(OCCN4CCCC4)cc3)sc2c1`: the K ass is 7.48e+07 l M-1.

Take `c1ccc2c(Cc3ccc(O[C@@H]4CCCC[C@H]4N4CCCCC4)cc3)c(-c3ccc(OCCN4CCCC4)cc3)sc2c1`: the K ass is 2.04e+07 l M-1.

`O=C(c1ccc(O[C@@H]2CCCC[C@H]2N2CCCC2)cc1)c1c(-c2ccc(OCCN3CCCC3)cc2)sc2ccccc12`: the K ass is 510000 l M-1.

Regarding `COc1cccc2c(Cc3ccc(O[C@@H]4CCCC[C@H]4N4CCCCC4)cc3)c(-c3ccc(OCCN4CCCC4)cc3)sc12`, the K ass is 118000 l M-1.

For the compound `COc1cc(Cc2c(-c3ccc(OCCN4CCCC4)cc3)sc3cc(O)ccc23)ccc1O[C@@H]1CCCC[C@H]1N1CCCC1`, the K ass was 3.09e+08 l M-1.

Turning to `Oc1ccc2c(Cc3ccc(O[C@@H]4CCCC[C@H]4N4CCCCC4)cc3)c(-c3ccc(OCCN4CCCC4)cc3)sc2c1`, the K ass is 2.12e+08 l M-1.

Regarding `CN(C)[C@@H]1CCCC[C@H]1Oc1ccc(Cc2c(-c3ccc(OCCN4CCCC4)cc3)sc3cc(O)ccc23)cc1`, the K ass was 5.11e+07 l M-1.
